# From US9814720B2, “Compositions and methods of inhibiting IL-17 expression of neutrophils” (priority 2014, dated 2017)
# Assays:
# [1] = test system: RORγt; assay: RORγt nuclear translocation in IL-6/23-stimulated human neutrophils (nuclear extract western blot, confocal); assay type: cell-based
# Description: (§1) Neutrophils were isolated from peripheral blood of healthy donors. Peripheral blood was incubated in 3% Dextran, and neutrophils isolated by Ficoll gradient centrifugation (Fisher Scientific), with neutrophil purity determined by staining with Wright-Giemsa.
# Murine or human neutrophils were suspended at a density of 10^6 cells/ml and incubated with […] of recombinant mouse or human IL-6 and 2 μg/ml IL-23 in RPMI, and the cells were maintained for 1-3 h at 37° C. in 5% CO2. Various inhibitors were used for assessing STAT3 activation. For STAT3, neutrophils were treated with either the STAT3-SH2 inhibitor, Stattic (20 μM) obtained from Tocris, or the JAK-1, 2 inhibitor, INC424, (aka Ruxolitinib; 20 μM (Selleck BioChem)). For the determination of RORγt-dependent signaling, SR1001 (20 μM; Sigma) was used, which inhibits RORγt binding to the IL-17 promoter site. All inhibitors were added to neutrophils 2 h prior to recombinant IL-6 and IL-23 stimulation. […]
# Neutrophils collected from primed or naïve C57BL/6 mice or unstimulated murine or human neutrophils were incubated with recombinant IL-6 and IL-23 for 60 min. […] Total protein was quantified using the BCA method, denatured with 2× Laemmli buffer (Sigma) and heated to 95° C. for 5 minutes. […] Ten μg of total protein was analyzed on a 12% SDS polyacrylamide gel, and transferred to nitrocellulose. […]
# [2] = test system: IL-17A; assay: IL-17A protein and Il17a gene expression in IL-6/23-stimulated human neutrophils; assay type: cell-based
# Description: as §1
# IL-17A protein production was quantified by 2-site ELISA, according to the manufacturer's directions (R&D Biosciences).
# (§2) Murine or human neutrophils were suspended at a density of 10^6 cells/ml and incubated with […] of recombinant mouse or human IL-6 and 2 μg/ml IL-23 in RPMI, and the cells were maintained for 1-3 h at 37° C. in 5% CO2. Various inhibitors were used for assessing STAT3 activation. For STAT3, neutrophils were treated with either the STAT3-SH2 inhibitor, Stattic (20 μM) obtained from Tocris, or the JAK-1, 2 inhibitor, INC424, (aka Ruxolitinib; 20 μM (Selleck BioChem)). For the determination of RORγt-dependent signaling, SR1001 (20 μM; Sigma) was used, which inhibits RORγt binding to the IL-17 promoter site. All inhibitors were added to neutrophils 2 h prior to recombinant IL-6 and IL-23 stimulation.
# Neutrophil and corneal cell RNA was extracted using the RNeasy mini kit according to the manufacturer's directions (Qiagen, Valencia, Calif.). […]
# The SYBR green system (Applied Biosystems, Carlsbad, Calif.) was utilized for quantitative PCR (qPCR) using ABI Biosystems. […]
# [3] = test system: IL-17RC; assay: IL-17RC gene expression by qPCR in IL-6/23-stimulated murine neutrophils; assay type: cell-based; conditions: IL-6/23 1 h, FIG. 6A
# Excerpt: Total bone marrow-derived cells were isolated from mouse femurs and tibias by flushing with RPMI and an 18-gauge needle. Erythrocytes were lysed with 1× lysis buffer (eBioscience), and bone marrow cells were separated on a Percoll (Fisher) gradient by density centrifugation (52%, 69%, and 78%). Cells at the 69-78% interface were harvested, and neutrophil purity (>98%) confirmed by flow cytometry and Wright-Giemsa staining.
# as §2
# Neutrophil and corneal cell RNA was extracted using the RNeasy mini kit according to the manufacturer's directions (Qiagen, Valencia, Calif.). The quality of RNA was checked by spectrophotometry, and only samples with a 260/280 ratio of 2.0 were used to generate cDNA. The SuperScript First Strand synthesis system (Invitrogen) was used to generate cDNA according to the manufacturer's directions.
# The SYBR green system (Applied Biosystems, Carlsbad, Calif.) was utilized for quantitative PCR (qPCR) using ABI Biosystems. PCR products were then run on a 1% agarose gel, and visualized using ethidium bromide. PCR products were compared to Actb (encoding the β-actin gene) or GAPDH as the controls for gel loading.
# [4] = test system: bone marrow-derived murine neutrophils; assay: ROS production (CFDA) by murine bone marrow neutrophils incubated with Aspergillus hyphae; assay type: cell-based, C57BL/6 mice; conditions: IL-6/23-stimulated, inhibitor 20 μM, FIG. 6C
# Description: (§3) Murine and human neutrophils were incubated with p-STAT3 (20 μM Stattic or 20 μM INC424) or RORγt inhibitors (20 μM SR1001) for 2 h. Then the cells were stimulated with […] of rIL-6 and 2 μg/ml of rIL-23 for 3 h, washed, and 2×10^5 bone marrow-derived murine neutrophils or 10^5 human peripheral blood neutrophils, with or without recombinant IL-17A, were added to each well with growing hyphae. RPMI media was used as positive control (unimpaired growth), and PBS was used as a negative control (no growth (data not shown)). After 16 h the wells were washed with PBS and the dsRed fungal mass was quantified in a 96-well fluorometer at 550/600 nm excitation/emission filter (Synergy HT, Biotek).
# (§4) In vitro ROS production measured by CFDA was previously described. Briefly, 100 μg/100 μl of A. fumigatus hyphal extract (AspHE) were incubated with 2×10^5 murine or human neutrophils. Neutrophils were treated for 1 h with 1 μM Carboxyfluorescein diacetate (H2CFDA (Sigma)), which will fluoresce following ROS oxidation. Neutrophils were collected and analyzed by flow cytometry. H2CFDA pulsed neutrophils that had not been incubated with AspHE were used to set the ROS histogram gate. The average mean intensity was calculated by Accuri flow software and graphed in Prism.
# [5] = test system: human peripheral blood neutrophils; assay: ROS production (CFDA) by human peripheral blood neutrophils incubated with Aspergillus hyphae; assay type: cell-based; conditions: IL-6/23-stimulated, inhibitor 20 μM, FIG. 6E
# Description: as §3, §4
compound,measurement,setting,value
O=[N+]([O-])c1ccc2c(c1)S(=O)(=O)C=C2 [Stattic],RORγt localisation by confocal microscopy,[1],only detected in the cytoplasm
same,RORγt in nuclear extracts,"[1]; western blot, FIG. 5B",no longer detectable
same,IL-17A protein,[2]; FIG. 5D,ablated
same,Il17a gene expression,[2]; FIG. 5E,ablated
same,IL-17RC expression,[3],did not inhibit
same,ROS production,[4]; plus rIL-17A,ROS production was increased
same,ROS production,[4]; without rIL-17A,not increased above the level produced by naïve neutrophils
same,ROS production,[5]; plus rhIL-17A,increased ROS
same,ROS production,[5]; without rhIL-17A,no increase in ROS
